Source: patent US8729073B2, “5-methyl-1-(naphthalen-2-yl)-1H-pyrazole derivatives and their use in potentiating the effect of opioid analgesics” (Laboratorios Del Dr. Esteve, S.A., priority 2010, dated 2014)
Entries after “also recorded” stand apart in the source; their conditions may differ.

Key:
[1] = test system: capsaicin-induced neuropathic pain; experiment: Effect on capsaicin in development of mechanical allodynia (von Frey filaments); assay type: in vivo; details: mice, test compound given before 1 μg capsaicin (1% DMSO) injected into paw, FIG. 2
Procedure: Effect on Capsaicin in Development of Mechanical Allodynia
This model uses the von-Frey Filaments and is a model to test the effects or symptoms of neuropathic pain, allodynia etc.
Interest of the model: • The injection of 1 μg of capsaicin to experimental animals produces acute pain followed by hyperalgesia/allodynia • The mechanisms involved in capsaicin-induced acute pain and hyperalgesia are relatively well known (mainly activation of peripheral nociceptors and sensitization of spinal cord neurons, respectively)
After habituation mice were according to FIG. 1 first treated with the test-compound (or solvent in controls). Then 1 μg capsaicin (1% DMSO) is injected into their paw resulting in developing pain in the effected paw. The effected paw is then treated with a mechanical stimulus and the latency time before the paw is withdrawn is measured.

morphine analgesia = experiment: Tail-flick test in mice, modulation of morphine analgesia; assay type: in vivo; details: male CD1 mice; Example n^o 1 5-20 mg/kg i.p. coadministered with fixed dose of morphine 2 mg/kg s.c.; 30 min post-administration; FIG. 3

With Cc1cc(OCCN2CCOCC2=O)nn1-c1ccc2ccccc2c1 [Example n^o 1, 4-(2-(5-methyl-1-(naphthalen-2-yl)-1H-pyrazol-3-yloxy)ethyl)morpholin-3-one] the “analgesia in capsaicin-induced neuropathic pain (latency time before the paw is withdrawn, mechanical stimulus)” value [1] was “dose dependency of the treatment with the compound of example 1 showing analgesia in capsaicin-induced neuropathic pain” and the “potentiation of morphine analgesia (% Analgesia, tail-flick latency)” value (morphine analgesia) was “enhances the analgesic effect of a fixed dose of morphine; also recorded: dose-dependently increased the analgesic efficacy of morphine”.
